This is an account of results in ChEMBL document CHEMBL1154915, “Selection of inhibitory peptides for Aurora-A kinase from a phage-displayed library of helix-loop-helix peptides” (Bioorg Med Chem Lett, 2010).

The source made the active and inactive calls.

The target of one assay is T1, Aurora kinase A (Homo sapiens) (UniProt O14965).
T1 sequence (whole entry): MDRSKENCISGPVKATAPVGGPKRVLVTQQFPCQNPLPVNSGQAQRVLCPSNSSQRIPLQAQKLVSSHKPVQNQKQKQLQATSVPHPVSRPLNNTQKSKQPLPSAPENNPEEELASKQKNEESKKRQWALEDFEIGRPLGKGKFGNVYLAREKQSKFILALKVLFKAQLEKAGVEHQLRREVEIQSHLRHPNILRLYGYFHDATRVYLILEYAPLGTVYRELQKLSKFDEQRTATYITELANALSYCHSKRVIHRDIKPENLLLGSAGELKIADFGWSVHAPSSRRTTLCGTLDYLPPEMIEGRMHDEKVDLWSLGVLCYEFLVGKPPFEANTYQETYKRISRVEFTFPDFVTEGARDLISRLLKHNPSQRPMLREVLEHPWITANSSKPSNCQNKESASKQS
Kind of assay: Binding affinity to GST-tagged Aurora A after 1 hr by ELISA.
Consider “H-AELAALEAELAALEGARHFYVQSVGKLAALKAKLAALKA-OH”, for which the result was Active. Same read-out and setting: for “H-AELAALEAELAALEGERRLIIFNSGKLAALKAKLAALKA-OH” the value was “Active”; for “H-AELAALEAELAALEGGGGGGGKLAALKAKLAALKAY-NH2”, “inactive”; for “H-AELAALEAELAALEGGYERRGWGVTGKLAALKAKLAALKA-OH”, “Active”. Same read-out and setting: for “H-AELAALEAELAALEGKGTQMWWLLGKLAALKAKLAALKA-OH” the value was “Active”; for “H-AELAALEAELAALEGKVYMFWTIMGKLAALKAKLAALKA-OH”, “Active”; for “H-AELAALEAELAALEGLEGKSMGFIGKLAALKAKLAALKA-OH”, “Active”. Regarding “H-AELAALEAELAALEGLQQVLSYIFGKLAALKAKLAALKA-OH”, the outcome was Active. On the same count and under the same terms, for “H-AELAALEAELAALEGLQTMWHSLWGKLAALKAKLAALKA-OH” the value was “Active”; for “H-AELAALEAELAALEGLVMGVKAFLGKLAALKAKLAALKA-OH”, “Active”. On the same count and under the same terms, for “H-AELAALEAELAALEGMRDWLIIGFGKLAALKAKLAALKA-OH” the value was “Active”; for “H-AELAALEAELAALEGNISRFWVLAGKLAALKAKLAALKA-OH”, “Active”. On the same count and under the same terms, for “H-AELAALEAELAALEGQGRADMSILGKLAALKAKLAALKA-OH” the value was “Active”. On to “H-AELAALEAELAALEGQLWMLNTILGKLAALKAKLAALKA-OH”, for which the outcome was Active. The same measure, in the same setting: for “H-AELAALEAELAALEGQVGSTRLLSGKLAALKAKLAALKA-OH” the value was “Active”; for “H-AELAALEAELAALEGRDQVMWFLHGKLAALKAKLAALKA-OH”, “Active”. On the same count and under the same terms, for “H-AELAALEAELAALEGRRAVWPFGFGKLAALKAKLAALKA-OH” the value was “Active”; for “H-AELAALEAELAALEGRRVVVSFAWDGKLAALKAKLAALKA-OH”, “Active”.

For the substance “H-AELAALEAELAALEGRSEDPVCSWGKLAALKAKLAALKA-OH”, the result was Active. Still for that read-out and setting: for “H-AELAALEAELAALEGSGAWMGSLLGKLAALKAKLAALKA-OH” the value was “Active”. Same read-out and setting: for “H-AELAALEAELAALEGSGMLAHFSWGKLAALKAKLAALKA-OH” the value was “Active”. Consider “H-AELAALEAELAALEGSQDNARSLWGKLAALKAKLAALKA-OH”, for which the result was Active. Still for that read-out and setting: for “H-AELAALEAELAALEGSRNQMYWLYGKLAALKAKLAALKA-OH” the value was “Active”; for “H-AELAALEAELAALEGSRRMWNAYEGKLAALKAKLAALKA-OH”, “Active”. Same read-out and setting: for “H-AELAALEAELAALEGSSERKLVLLGKLAALKAKLAALKA-OH” the value was “Active”. The same measure, in the same setting: for “H-AELAALEAELAALEGSVAQLGLLLGKLAALKAKLAALKA-OH” the value was “Active”; for “H-AELAALEAELAALEGVGEFSVSLLGKLAALKAKLAALKA-OH”, “Active”. On to “H-AELAALEAELAALEGWGGLMGWISGKLAALKAKLAALKA-OH”, for which the result was Active. On the same count and under the same terms, for “H-AELAALEAELAALEGWLIELLWIVGKLAALKAKLAALKA-OH” the value was “Active”. Regarding “H-AELAALEAELAALEGWRRRLNNWWGKLAALKAKLAALKA-OH”, the outcome was Active. Still for that read-out and setting: for “H-AELAALEAELAALEGWVGMREVWRGKLAALKAKLAALKA-OH” the value was “Active”; for “H-AELAALEAELAALEGWVQVAQKVRGKLAALKAKLAALKA-OH”, “Active”. On to “H-AELAALEAELAALEGYEGQFMWLIGKLAALKAKLAALKA-OH”, for which the result was Active. Still for that read-out and setting: for “H-AELAALEAELAAPEGSQERKGVLAGKLAALKAKLAALKA-OH” the value was “Active”; for “H-AELAALEAELAPLEGYVSAGSQLWDGKLAALKAKLAALKA-OH”, “Active”.

The target of a further assay is T1, Aurora kinase A (Homo sapiens). Kind of assay: Inhibition of Aurora A at 100 uM by IMAP fluorescence polarization assay.
With “H-AELAALEAELAALEGARHFYVQSVGKLAALKAKLAALKA-OH”, the inhibition entry was “inactive”. As to “H-AELAALEAELAALEGERRLIIFNSGKLAALKAKLAALKA-OH”, the inhibition is 20%. In the case of “H-AELAALEAELAALEGGGGGGGKLAALKAKLAALKAY-NH2”, the inhibition entry was “inactive”.

“H-AELAALEAELAALEGRRVVVSFAWDGKLAALKAKLAALKA-OH” showed an inhibition of 35%. Same read-out and setting: for “H-AELAALEAELAALEGSSERKLVLLGKLAALKAKLAALKA-OH” the value was 17%; for “H-AELAALEAELAALEGVGEFSVSLLGKLAALKAKLAALKA-OH”, “inactive”; for H-GRRVVVAFAWD-NH2, “inactive”.

Another assay has the same target. Kind of assay: Inhibition of Aurora A at 10 uM by IMAP fluorescence polarization assay.
“H-AELAALEAELAALEGRRVVVAFAWDKLAALKAKLAALKA-NH2”: the inhibition was 42%.
